Assay results published in patent US20240092835A1, “NOVEL PEPTIDES CAPABLE OF ALTERING NK CELL ACTIVITY” (Massachusetts Institute of Technology, priority 2022, published 2024).
“Also recorded” adds a separate entry of the source. Where no end group is shown, it is not given here.

Key:
[1] = tested on: NKG2A+/NKG2C− NK cells; assay: NK cell activation markers in NKG2A+/NKG2C- NK cells incubated with peptide and K562 expressing HLA-E (inhibition); type: cell-based, human; conditions: for effect on NKG2A+/NKG2C− NK cell inhibition (in words): K562 expressing HLA-E, CD107a, IFNG, TNF, CCL3; for percentage of CCL3+ NK cells / percentage of CD107a+ NK cells / percentage of IFNG+ NK cells / percentage of TNF+ NK cells: NKG2A+/NKG2C- NK cells, K562/HLA-E
Summary of the method: (§1)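 Percent-positive cells for NK activation surface markers were measured after NK cells met peptide-treated K562 cells expressing HLA-E. A decrease in that fraction was scored as inhibition and an increase as activation; NKG2A−/NKG2C− cells served as controls.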

[2] = target: T1, HLA-E (Homo sapiens, UniProt P13747); assay: HLA-E surface stabilization assay with RMA-S/HLA-E cells; type: cell-based; conditions: 30 μM peptide, 16 hours; for HLA-E surface expression stability (GeoMFI): anti-HLA-E antibody
T1 construct: expressed in transfected cells; host or cells: RMA-S/HLA-E cells (antigen processing-defective lymphoma cell line)
Method: HLA-E surface expression was assessed by measuring geometric mean fluorescence intensity (GeoMFI) in RMA-S cells following immunofluorescence staining with an anti-HLA-E antibody (Table 14). Increased GeoMFI was indicative of increased HLA-E surface expression stability following novel peptide exposures (FIG. 3).

[3] = target: CD94/NKG2C (Homo sapiens, UniProt P26717+Q13241); assay: Steady-state surface plasmon resonance of peptide-HLA-E complex with CD94/NKG2C; type: binding; conditions: for Binding of peptide-HLA-E complexes to CD94/NKG2C normalized to a theoretical Rmax: steady-state SPR
Method: Binding affinity of novel peptides linked to HLA-E was determined using surface plasmon resonance (SPR), a methodology used to study protein-protein interactions (Tables 15-19). The peptide-HLA-E complex (generated as a single chain trimer) was immobilized on the sensor chip surface and CD94/NKG2A or CD94/NKG2C were flowed over. Steady-state surface plasmon resonance experiments were performed with a Biacore T200 instrument. CD94/NKG2x in HBS-EP+ buffer was injected as analyte in a concentration range of 0.1 μM to 102.4 μM and flow rate of 10 μL/min at 25° C. Data was fit with Prism 9.4 (GraphPad Software Inc; San Diego CA) to a “one site, specific binding” model. Series S CM5 chips were coupled to neutravidin and utilized. Biotinylated pMHC was immobilized at approximately 400 RU. KD values calculated by Biacore software are reported. Rmax, fit values were calculated by Biacore software. Rmax, theoretical values were calculated using the analyte/ligand mass ratio (0.66) multiplied by the amount of ligand coupled to the chip.

[4] = tested on: NKG2A−/NKG2C+ NK cells; assay: NK cell activation markers in NKG2A-/NKG2C+ NK cells incubated with peptide and K562 expressing HLA-E (activation); type: cell-based, human; conditions: for effect on NKG2A−/NKG2C+ NK cell activation (in words): K562 expressing HLA-E, CD107a, IFNG, TNF, CCL3; for percentage of CCL3+ NK cells / percentage of CD107+ NK cells / percentage of IFNG+ NK cells / percentage of TNF+ NK cells: NKG2A-/NKG2C+ NK cells, K562/HLA-E
Summary of the method: as §1

T1 sequence (P13747 22-358): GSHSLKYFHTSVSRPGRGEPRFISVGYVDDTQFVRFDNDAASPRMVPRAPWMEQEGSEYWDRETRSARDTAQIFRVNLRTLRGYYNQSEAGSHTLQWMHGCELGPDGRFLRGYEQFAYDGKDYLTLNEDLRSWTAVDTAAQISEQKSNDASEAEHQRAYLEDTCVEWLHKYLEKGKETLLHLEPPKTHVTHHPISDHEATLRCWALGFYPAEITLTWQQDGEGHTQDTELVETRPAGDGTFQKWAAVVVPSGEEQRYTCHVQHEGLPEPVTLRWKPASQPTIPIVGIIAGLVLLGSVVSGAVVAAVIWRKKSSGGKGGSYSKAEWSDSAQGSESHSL
T1 sequence (P61769 21-119 partner): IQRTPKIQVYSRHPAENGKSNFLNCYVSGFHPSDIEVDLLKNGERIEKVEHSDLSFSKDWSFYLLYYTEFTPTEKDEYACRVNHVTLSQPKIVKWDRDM
Sequence of CD94/NKG2C (P26717 94-231 limits assumed): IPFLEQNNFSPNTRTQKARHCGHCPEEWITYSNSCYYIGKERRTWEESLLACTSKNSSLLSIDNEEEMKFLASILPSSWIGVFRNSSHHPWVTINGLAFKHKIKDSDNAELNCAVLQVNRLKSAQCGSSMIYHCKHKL
Sequence of CD94/NKG2C (Q13241 32-179 limits assumed): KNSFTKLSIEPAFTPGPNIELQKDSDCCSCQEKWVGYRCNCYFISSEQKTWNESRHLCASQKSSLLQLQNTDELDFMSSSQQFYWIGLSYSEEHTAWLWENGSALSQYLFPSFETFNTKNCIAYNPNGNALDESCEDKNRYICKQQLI

## QMPSRSLLF [human1, QMPSRSLLF]
[1]; listed as SEQ ID NO. 7
  effect on NKG2A+/NKG2C− NK cell inhibition (in words): mild inhibitory effects
[1]; listed as h1
  effect on NKG2A+/NKG2C− NK cell inhibition (in words): mild inhibitory effects; also recorded: strong inhibitory
[1]; Trial 1
  percentage of CCL3+ NK cells: 31.8%
  percentage of CD107a+ NK cells: 15.3%
  percentage of IFNG+ NK cells: 4.26%
  percentage of TNF+ NK cells: 1.66%
[1]; Trial 2
  percentage of CCL3+ NK cells: 47%
  percentage of CD107a+ NK cells: 25.7%
  percentage of IFNG+ NK cells: 9.68%
  percentage of TNF+ NK cells: 3.94%
[1]; Trial 3
  percentage of CCL3+ NK cells: 28.8%
  percentage of CD107a+ NK cells: 28.5%
  percentage of IFNG+ NK cells: 15.5%
  percentage of TNF+ NK cells: 9.23%
[1]; Trial 4
  percentage of CCL3+ NK cells: 14.2%
  percentage of CD107a+ NK cells: 14.6%
  percentage of IFNG+ NK cells: 3.06%
  percentage of TNF+ NK cells: 2.61%
[1]; Trial 5
  percentage of CCL3+ NK cells: 25.5%
  percentage of CD107a+ NK cells: 9.4%
  percentage of IFNG+ NK cells: 2.48%
  percentage of TNF+ NK cells: 1.56%
[1]; Trial 6
  percentage of CCL3+ NK cells: 16.6%
  percentage of CD107a+ NK cells: 13.3%
  percentage of IFNG+ NK cells: 2.26%
  percentage of TNF+ NK cells: 1.77%
[2]
  HLA-E surface expression stabilization strength (in words): moderate
[2]; Trial 1
  HLA-E surface expression stability (GeoMFI): 2461 GeoMFI
[2]; Trial 2
  HLA-E surface expression stability (GeoMFI): 1755 GeoMFI
[2]; Trial 3
  HLA-E surface expression stability (GeoMFI): 2273 GeoMFI
[2]; Trial 4
  HLA-E surface expression stability (GeoMFI): 2496 GeoMFI
[2]; approximate value
  HLA-E surface expression stabilization strength, approximate GeoMFI: approximately 2×10^3 GeoMFI
[3]; CD94/NKG2C concentration 0 μM
  binding of peptide-HLA-E complex to CD94/NKG2C normalized to a fitted Rmax: −0.007
[3]; CD94/NKG2C concentration 0.1 μM
  binding of peptide-HLA-E complex to CD94/NKG2C normalized to a fitted Rmax: 0.007
[3]; CD94/NKG2C concentration 0.2 μM
  binding of peptide-HLA-E complex to CD94/NKG2C normalized to a fitted Rmax: 0.017
[3]; CD94/NKG2C concentration 0.4 μM
  binding of peptide-HLA-E complex to CD94/NKG2C normalized to a fitted Rmax: 0.038
[3]; CD94/NKG2C concentration 0.8 μM
  binding of peptide-HLA-E complex to CD94/NKG2C normalized to a fitted Rmax: 0.076
[3]; CD94/NKG2C concentration 1.6 μM
  binding of peptide-HLA-E complex to CD94/NKG2C normalized to a fitted Rmax: 0.144
[3]; CD94/NKG2C concentration 3.2 μM
  binding of peptide-HLA-E complex to CD94/NKG2C normalized to a fitted Rmax: 0.246
[3]; CD94/NKG2C concentration 6.4 μM
  binding of peptide-HLA-E complex to CD94/NKG2C normalized to a fitted Rmax: 0.394
[3]; CD94/NKG2C concentration 12.8 μM
  binding of peptide-HLA-E complex to CD94/NKG2C normalized to a fitted Rmax: 0.564
[3]; CD94/NKG2C concentration 25.6 μM
  binding of peptide-HLA-E complex to CD94/NKG2C normalized to a fitted Rmax: 0.723
[3]; CD94/NKG2C concentration 51.2 μM
  binding of peptide-HLA-E complex to CD94/NKG2C normalized to a fitted Rmax: 0.832
[3]; CD94/NKG2C concentration 102.4 μM
  binding of peptide-HLA-E complex to CD94/NKG2C normalized to a fitted Rmax: 0.912
[3]; CD94/NKG2C analyte concentration 0 μM
  Binding of peptide-HLA-E complexes to CD94/NKG2C normalized to a theoretical Rmax: −0.004
[3]; CD94/NKG2C analyte concentration 0.1 μM
  Binding of peptide-HLA-E complexes to CD94/NKG2C normalized to a theoretical Rmax: 0.004
[3]; CD94/NKG2C analyte concentration 0.2 μM
  Binding of peptide-HLA-E complexes to CD94/NKG2C normalized to a theoretical Rmax: 0.010
[3]; CD94/NKG2C analyte concentration 0.4 μM
  Binding of peptide-HLA-E complexes to CD94/NKG2C normalized to a theoretical Rmax: 0.023
[3]; CD94/NKG2C analyte concentration 0.8 μM
  Binding of peptide-HLA-E complexes to CD94/NKG2C normalized to a theoretical Rmax: 0.047
[3]; CD94/NKG2C analyte concentration 1.6 μM
  Binding of peptide-HLA-E complexes to CD94/NKG2C normalized to a theoretical Rmax: 0.088
[3]; CD94/NKG2C analyte concentration 3.2 μM
  Binding of peptide-HLA-E complexes to CD94/NKG2C normalized to a theoretical Rmax: 0.151
[3]; CD94/NKG2C analyte concentration 6.4 μM
  Binding of peptide-HLA-E complexes to CD94/NKG2C normalized to a theoretical Rmax: 0.242
[3]; CD94/NKG2C analyte concentration 12.8 μM
  Binding of peptide-HLA-E complexes to CD94/NKG2C normalized to a theoretical Rmax: 0.346
[3]; CD94/NKG2C analyte concentration 25.6 μM
  Binding of peptide-HLA-E complexes to CD94/NKG2C normalized to a theoretical Rmax: 0.444
[3]; CD94/NKG2C analyte concentration 51.2 μM
  Binding of peptide-HLA-E complexes to CD94/NKG2C normalized to a theoretical Rmax: 0.511
[3]; CD94/NKG2C analyte concentration 102.4 μM
  Binding of peptide-HLA-E complexes to CD94/NKG2C normalized to a theoretical Rmax: 0.560
[4]; listed as SEQ ID NO. 7
  effect on NKG2A−/NKG2C+ NK cell activation (in words): strong activating effects
[4]; listed as h1
  effect on NKG2A−/NKG2C+ NK cell activation (in words): strong inhibitory and activating effects
[4]; Trial 1
  percentage of CCL3+ NK cells: 78.3%
  percentage of CD107+ NK cells: 74.8%
  percentage of IFNG+ NK cells: 62.6%
  percentage of TNF+ NK cells: 51.1%
[4]; Trial 2
  percentage of CCL3+ NK cells: 91.5%
  percentage of CD107+ NK cells: 87.4%
  percentage of IFNG+ NK cells: 84.1%
  percentage of TNF+ NK cells: 75.2%
[4]; Trial 3
  percentage of CCL3+ NK cells: 86.6%
  percentage of CD107+ NK cells: 87%
  percentage of IFNG+ NK cells: 80.5%
  percentage of TNF+ NK cells: 72.9%
[4]; Trial 4
  percentage of CCL3+ NK cells: 68.1%
  percentage of CD107+ NK cells: 68.2%
  percentage of IFNG+ NK cells: 58.1%
  percentage of TNF+ NK cells: 51.6%
[4]; Trial 5
  percentage of CCL3+ NK cells: 79.1%
  percentage of CD107+ NK cells: 75.8%
  percentage of IFNG+ NK cells: 66.9%
  percentage of TNF+ NK cells: 64%
[4]; Trial 6
  percentage of CCL3+ NK cells: 61.1%
  percentage of CD107+ NK cells: 57.6%
  percentage of IFNG+ NK cells: 46.7%
  percentage of TNF+ NK cells: 38.8%
